{
  "source": "ChEMBL document CHEMBL2176999",
  "about": "“Update on the development of antagonists of chemoattractant receptor-homologous molecule expressed on Th2 cells (CRTH2). From lead optimization to clinical proof-of-concept in asthma and allergic rhinitis” (J Med Chem, 2012)",
  "key": {"[1]": {"target": "T1, Prostaglandin D2 receptor 2 (Homo sapiens, UniProt Q9Y5Y4)", "T1 sequence (Q9Y5Y4 whole entry)": "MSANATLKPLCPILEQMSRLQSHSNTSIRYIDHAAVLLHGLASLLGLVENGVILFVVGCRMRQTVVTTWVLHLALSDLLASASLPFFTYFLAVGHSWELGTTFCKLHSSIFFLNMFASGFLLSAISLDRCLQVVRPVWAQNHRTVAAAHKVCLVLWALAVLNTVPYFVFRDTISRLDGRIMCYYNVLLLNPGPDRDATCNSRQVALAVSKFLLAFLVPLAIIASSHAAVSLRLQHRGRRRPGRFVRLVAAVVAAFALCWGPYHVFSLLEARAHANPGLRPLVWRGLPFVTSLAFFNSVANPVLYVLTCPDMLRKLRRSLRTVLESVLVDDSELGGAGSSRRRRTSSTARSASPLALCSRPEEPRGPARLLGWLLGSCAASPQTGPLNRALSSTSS", "description": "Inhibition of CRTH2 in human whole blood"}, "[2]": {"target": "T1, Prostaglandin D2 receptor 2", "experiment": "Antagonistic activity at CRTH2 in human eosinophils assessed as inhibition of PGD2-induced calcium mobilization after 60 mins by Fluo-3 based fluorescence assay", "format": "functional"}, "[3]": {"target": "T1, Prostaglandin D2 receptor 2", "remark": "listed apart in the source"}, "[4]": {"target": "T1, Prostaglandin D2 receptor 2", "experiment": "Displacement of [3H]PGD2 from human CRTH2 expressed in HEK293 cells after 90 mins by TopCount analysis", "format": "cell-based"}, "[5]": {"target": "T1, Prostaglandin D2 receptor 2", "experiment": "Displacement of [3H]PGD2 from human CRTH2 expressed in K562 cells after 60 mins by scintillation counting", "format": "cell-based"}, "[6]": {"experiment": "Oral bioavailability in rat", "format": "ADME, organism-based", "conditions": "in vivo"}, "[7]": {"target": "Aldo-keto reductase family 1 member B1 (Rattus norvegicus, UniProt P07943)", "experiment": "Inhibition of rat aldose reductase"}, "in vivo": {"experiment": "in vivo", "conditions": "rat"}, "[8]": {"target": "T1, Prostaglandin D2 receptor 2", "experiment": "Displacement of [3H]PGD2 from CRTH2 expressed in CHO cells after 1 hr by beta counting analysis", "format": "cell-based"}, "[9]": {"target": "Sodium-dependent serotonin transporter (Homo sapiens, UniProt P31645)", "sequence (P31645 whole entry)": "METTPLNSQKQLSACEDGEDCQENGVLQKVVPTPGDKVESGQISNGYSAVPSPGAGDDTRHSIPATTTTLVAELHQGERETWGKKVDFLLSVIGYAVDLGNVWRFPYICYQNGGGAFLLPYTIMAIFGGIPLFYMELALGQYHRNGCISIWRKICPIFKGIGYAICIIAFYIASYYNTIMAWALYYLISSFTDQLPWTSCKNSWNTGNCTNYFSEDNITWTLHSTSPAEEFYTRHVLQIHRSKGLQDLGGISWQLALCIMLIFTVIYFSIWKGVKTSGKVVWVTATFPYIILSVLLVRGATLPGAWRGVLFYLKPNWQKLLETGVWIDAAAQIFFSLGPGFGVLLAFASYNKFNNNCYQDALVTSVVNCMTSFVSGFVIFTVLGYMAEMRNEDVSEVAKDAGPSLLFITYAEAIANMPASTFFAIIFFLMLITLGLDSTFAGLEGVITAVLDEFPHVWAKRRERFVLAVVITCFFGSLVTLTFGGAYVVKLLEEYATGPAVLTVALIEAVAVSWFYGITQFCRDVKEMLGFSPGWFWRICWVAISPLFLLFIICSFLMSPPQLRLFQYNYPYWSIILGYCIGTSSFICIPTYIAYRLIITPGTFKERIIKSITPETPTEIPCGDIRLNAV", "experiment": "Inhibition of SERT"}, "[10]": {"target": "T1, Prostaglandin D2 receptor 2", "experiment": "Displacement of [3H]PGD2 from human CRTH2 expressed in K562 cells after 60 mins by scintillation counting in presence of 4% human serum albumin", "format": "cell-based"}},
  "data": [
    {"molecule": "Cc1c(CC(=O)O)c2cc(F)ccc2n1Cc1nc2ccccc2s1", "values": [
      {"measurement": "IC50", "setting": "[1]", "value": 2.4, "unit": "µM"},
      {"measurement": "Ki", "setting": "[2]", "value": 0.044, "unit": "µM"}
    ]},
    {"molecule": "CCN(Cc1cc(C(F)(F)F)ccc1-c1cc(CC(=O)O)ccc1OC)C(=O)C1CC1", "values": [
      {"measurement": "IC50", "setting": "[1]", "value": 0.0065, "unit": "µM"},
      {"measurement": "Ki", "setting": "[3]", "value": 0.0135, "unit": "µM"}
    ]},
    {"molecule": "Cc1c(CC(=O)O)c2cc(F)ccc2n1Cc1ccc2ccccc2c1", "values": [
      {"measurement": "Ki", "setting": "[2]", "value": 0.009, "unit": "µM"}
    ]},
    {"molecule": "O=C(O)Cn1c2c(c3cc(F)ccc31)C[C@H](NC(=O)CC(c1ccccc1)c1ccccc1)CC2", "values": [
      {"measurement": "IC50", "setting": "[4]", "value": 0.002, "unit": "µM"}
    ]},
    {"molecule": "CCc1c(CC(=O)O)c(C2CC2)nn1Cc1ccc(NC(=O)c2ccc(C(F)(F)F)cc2)cc1", "values": [
      {"measurement": "Ki", "setting": "[3]", "value": 0.0005, "unit": "µM"}
    ]},
    {"molecule": "Cc1c(Cc2nc3ccccc3s2)c2cc(F)ccc2n1CC(=O)O", "values": [
      {"measurement": "IC50", "setting": "[1]", "value": 0.343, "unit": "µM"}
    ]},
    {"molecule": "Cc1cc(CC(=O)O)c2c(C)c(Cc3ccccc3)c(=O)oc2c1", "values": [
      {"measurement": "Ki", "setting": "[5]", "value": 0.032, "unit": "µM"}
    ]},
    {"molecule": "Cc1c(Cc2ccc(S(C)(=O)=O)cc2)c2cc(F)ccc2n1CC(=O)O", "values": [
      {"measurement": "IC50", "setting": "[1]", "value": 0.008, "unit": "µM"}
    ]},
    {"molecule": "O=C(O)Cc1ccc(Oc2ccc(NC(=O)c3ccc(Cl)c(Cl)c3)cc2)c(CNS(=O)(=O)c2ccc(F)cc2)c1", "values": [
      {"measurement": "Ki", "setting": "[3]", "value": "< 1", "unit": "µM"}
    ]},
    {"molecule": "CN(C(=O)C1(C)CCc2c(c3ccccc3n2CC(=O)O)C1)c1cccc(Cl)c1", "note": "(stereo unspecified)", "values": [
      {"measurement": "IC50", "setting": "[4]", "value": 0.001, "unit": "µM"}
    ]},
    {"molecule": "Cc1c(Cc2ccc3ccccc3c2)c2cc(F)ccc2n1CC(=O)O", "values": [
      {"measurement": "IC50", "setting": "[1]", "value": 0.812, "unit": "µM"},
      {"measurement": "Ki", "setting": "[2]", "value": 0.015, "unit": "µM"}
    ]},
    {"molecule": "Cc1c(Cc2ccc3ccccc3n2)c2cc(F)ccc2n1CC(=O)O", "note": "[TIMAPIPRANT]", "values": [
      {"measurement": "bioavailability", "setting": "[6]", "value": 100, "unit": "%"},
      {"measurement": "IC50", "setting": "[7]", "value": 0.55, "unit": "µM"},
      {"measurement": "half-life", "setting": "in vivo", "value": 3.5, "unit": "h"}
    ]},
    {"molecule": "Cc1c(Sc2ccc(Cl)cc2)c2ncccc2n1CC(=O)O", "values": [
      {"measurement": "Ki", "setting": "[8]", "value": 0.143, "unit": "µM"},
      {"measurement": "Ki", "setting": "[9]", "value": 0.143, "unit": "µM"}
    ]},
    {"molecule": "Cc1c(CC(=O)O)c2cc(F)ccc2n1S(=O)(=O)c1ccc(S(C)(=O)=O)cc1", "values": [
      {"measurement": "IC50", "setting": "[1]", "value": 0.106, "unit": "µM"}
    ]},
    {"molecule": "Cc1ccc2c(c1)c(-c1ccnc3c(C)cccc13)c(C)n2CC(=O)O", "values": [
      {"measurement": "IC50", "setting": "[9]", "value": 2, "unit": "µM"}
    ]},
    {"molecule": "Cc1c(Sc2ccc(Cl)cc2)c2cc(Cl)ncc2n1CC(=O)O", "values": [
      {"measurement": "Ki", "setting": "[3]", "value": 0.106, "unit": "µM"}
    ]},
    {"molecule": "CCc1nc2c(F)ccc(OCC(=O)O)c2c(OC(F)F)c1Cc1ccc(-n2cccn2)cc1", "values": [
      {"measurement": "Ki", "setting": "[5]", "value": 0.0054, "unit": "µM"}
    ]},
    {"molecule": "O=C(Nc1cccc(-c2ccc(Cl)cc2)n1)c1ccc(Oc2cc3c(cc2Cl)[C@H](C(=O)O)CCO3)cc1", "values": [
      {"measurement": "IC50", "setting": "[10]", "value": 0.022, "unit": "µM"}
    ]},
    {"molecule": "C[C@H]1C[C@@H](N(C(=O)CCC(=O)O)c2ccccc2)c2ccccc2N1C(=O)c1ccccc1", "values": [
      {"measurement": "IC50", "setting": "[1]", "value": 0.00077, "unit": "µM"}
    ]},
    {"molecule": "Cc1c(Sc2ccc(Cl)cc2)c2c(Cl)nccc2n1CC(=O)O", "values": [
      {"measurement": "Ki", "setting": "[3]", "value": 0.058, "unit": "µM"}
    ]}
  ]
}
